Literature values as cited in patent US20240216476A1, “COMBINATION OF BITTER RECEPTOR AGONIST AND GUT-SIGNALING COMPOUND” (AARDVARK THERAPEUTICS, INC., priority 2021, published 2024).
Like-named read-outs stand apart in the source and are kept apart here. Marks after values point to notes of the source that are not given here.

How the values were obtained:
[1] = tested on: NASH in vivo models; settings: cited from earlier work
[2] = cited from earlier work
[3] = Male C57BL/6J mice fed high fat diet for 20 weeks, 0.3 mg/kg/day PO for 20 weeks
[4] = Male C57BL/6J mice fed AMLN diet for 50 weeks, 30 mg/kg, PO, QD for 8 weeks
[5] = mouse model of diet-induced NASH, 10 mg/kg/day PO for eight weeks
[6] = mouse model of diet-induced NASH, 10 mg/kg/day PO for eight weeks, significantly
[7] = C57BL/6 mice on 60% high fat diet for 36 weeks, 0.3-3 mg/kg/day PO for 24 days
[8] = Male C57BL/6 mice fed fast food diet for 330 days, treatment started after 240 days, dose unknown
[9] = Male DIAMOND mice fed WDSW for 24 weeks, 30 mg/kg/day PO QD for the last 8 weeks
[10] = C57Bl6/J mice fed MCD diet for 3 weeks, 10 or 30 mg/kg, PO, QD for 3 weeks
[11] = C57BL/6 male mice fed MCD diet for 4 weeks, 5 mg/kg/day PO for the last 2 weeks
[12] = Male C57BL/6 mice fed CDAHFD diet for 20 weeks, 3 mg/kg PO for 12 weeks

C[C@H](NC(=O)C(=O)Nc1ccccc1C(C)(C)C)C(=O)N[C@@H](CC(=O)O)C(=O)COc1c(F)c(F)cc(F)c1F [Emricasan]
inflammation, ballooning, and fibrosis on histopathology [1, 3]: Improved | serum levels of glucose, HOMA-IR, cholesterol, ALT, and AST [1, 3]: Decreased serum levels

CC[C@H]1[C@@H](O)[C@@H]2[C@H](CC[C@]3(C)[C@@H]([C@H](C)CCNC(=O)NS(=O)(=O)c4ccc(C(C)(C)C)cc4)CC[C@@H]23)[C@@]2(C)CC[C@@H](O)C[C@@H]12 [EDP-305]
fibrogenic gene expression ([1]; Male C57BL/6 mice fed CDAHFD diet for 12 weeks, high dose (30 mg/kg daily PO) from week 6, significant): decreased fibrogenic | fibrosis progression on histopathology ([1]; Male C57BL/6 mice fed CDAHFD diet for 12 weeks, high-dose 30 mg/kg daily PO from beginning of week 6): halted fibrosis

CC[C@H]1[C@@H](O)[C@@H]2[C@H](CC[C@]3(C)[C@@H]([C@H](C)CCC(=O)O)CC[C@@H]23)[C@@]2(C)CC[C@@H](O)C[C@@H]12 [Obeticholic acid (INT-747)]
histopathological scores of hepatic steatosis and inflammation [1, 4]: Significantly reduced | liver weight [1, 4]: Significantly reduced | total liver TG and total cholesterol, collagen 1a1, and galectin-3 content [1, 4]: Significantly reduced | plasma total cholesterol ([1]; Male C57BL/6J mice fed AMLN diet for 50 weeks, 30 mg/kg, PO, QD for 8 weeks, significant): reduced plasma total

CSc1ccc(C(=O)/C=C/c2cc(C)c(OC(C)(C)C(=O)O)c(C)c2)cc1 [Elafibranor (GFT505)]
histopathological scores of hepatic steatosis and inflammation, as well as fibrosis severity [1, 4]: Significantly reduced | liver TG, total cholesterol contents, or plasma levels of ALT, AST, TG or total cholesterol [1, 4]: No effects on liver TG,

O=C(O)c1cc(F)c2nc(N3[C@@H]4CC[C@H]3C[C@@H](OCc3c(-c5ccccc5OC(F)(F)F)noc3C3CC3)C4)sc2c1 [Tropifexor]
inflammation, steatosis, and fibrosis ([1]; AMLN model (C57BL/6J mice on AMLN diet for 30 weeks), 0.03-0.9 mg/kg for the last 4 weeks): tropifexor reduced | mRNA levels of fibrogenic markers and hepatic inflammation cell populations ([1]; AMLN model (C57BL/6J mice), 0.03-0.9 mg/kg for the last 4 weeks): dramatically reduced | ALT/AST levels relative to controls ([1]; AMLN model (C57BL/6J mice), 0.03-0.9 mg/kg for the last 4 weeks, dose-dependent): reduction in ALT/AST

Cc1cc(OCP2(=O)OCC[C@@H](c3cccc(Cl)c3)O2)cc(C)c1Cc1ccc(O)c(C(C)C)c1 (some centres unmarked) [VK2809]
NAS score, mean improvement [1, 5]: (a 40% mean | all subcomponents of NAS (inflammation, ballooning, and steatosis) [1, 5]: Improvements in all | liver contents of triglyceride, cholesterol, collagen, and hydroxyproline [1, 6]: improved liver contents | liver fibrosis on histopathology [1, 6]: improved NAS score | plasma triglycerides and cholesterol [1, 6]: reduced plasma

CC(C)c1cc(Oc2c(Cl)cc(-n3nc(C#N)c(=O)[nH]c3=O)cc2Cl)n[nH]c1=O [Resmetirom (MGL-3196)]
insulin sensitivity [1, 7]: Improved insulin | reduction of serum ALT [1, 7]: (46%), free fatty acids | reduction of serum cholesterol [1, 7]: (67%). | reduction of serum free fatty acids [1, 7]: (30%), and cholesterol | steatosis, fibrosis or inflammation in treated livers [1, 7]: No detectable

Cc1cc(F)c(C(=O)Nc2cccc(-c3nncn3C(C)C)n2)cc1-n1cnc(C2CC2)c1 [Selonsertib (GS-4997)]
liver steatosis, fibrosis, and insulin resistance [1, 8]: Significantly reduced | reduction of liver cholesterol [1, 8]: 45% | reduction of serum bile acid cholate [1, 8]: cholate (91% reduction) | reduction of serum cholesterol [1, 8]: 14%

Lixisenatide
Incidence of Hypoglycemic Episodes for Combination with Insulin (vs. Placebo) ([2]; in vivo): 28%* | Incidence of Hypoglycemic Episodes for Combination with Metformin (vs. Placebo) ([2]; in vivo): 3% | Incidence of Hypoglycemic Episodes for Combination with a Sulfonylurea (vs. Placebo) ([2]; in vivo): 15%** | Incidence of Hypoglycemic Episodes for Monotherapy at the Highest Dose (vs. Placebo) ([2]; in vivo): 2%

COc1cccc(C(=O)COc2ccc(CC3SC(=O)[N-]C3=O)cc2)c1.[K+] (centres unmarked) [Azemiglitazone (MSDC 0602K)]
NASH CRN fibrosis score [1, 9]: treated group was 0. | ballooning [1, 9]: significantly decreased | mice progressed from simple steatosis to NASH compared to the control group [1, 9]: Significantly fewer | serum levels of fasting insulin, and AST and ALT [1, 9]: dramatically reduced | steatosis-activity-fibrosis (SAF) score ([1]; Male DIAMOND mice fed WDSW for 24 weeks, 30 mg/kg/day PO QD for the last 8 weeks, significantly, reduced to the level of baseline controls): lower in the MSDC-

O=C(O)CCCc1cc2cc(Cl)ccc2n1S(=O)(=O)c1ccc2ncsc2c1 [Lanifibranor (IVA337)]
induction of profibrotic and fibrotic genes [1, 10]: inhibited the induction | plasma alanine aminotransferase levels [1, 10]: significantly reduced | steatosis and inflammation on histopathology [1, 10]: IVA337 prevented

CCCCCCCCCCCCCCCCCCCC(=O)N[C@H]1CC[C@@]2(C)[C@@H](C1)C[C@@H](O)[C@@H]1[C@@H]2C[C@H](O)[C@]2(C)[C@@H]([C@H](C)CCC(=O)O)CC[C@@H]12.CNC[C@H](O)[C@@H](O)[C@H](O)[C@H](O)CO [Aramchol]
ALT, AST, or TG [1, 11]: No effects on ALT, | features of steatohepatitis and fibrosis [1, 11]: Reduced features of | protein expression of COL1A1 in the liver [1, 11]: decreased protein

CCCCOCCOc1ccc(-c2ccc3c(c2)/C=C(/C(=O)Nc2ccc([S@@+]([O-])Cc4cncn4CCC)cc2)CCCN3CC(C)C)cc1 [Cenicriviroc]
intrahepatic accumulation of inflammatory macrophages ([1]; Male C57BL/6N mice fed CDAHFD, IP, 30 mg/kg/day for 4 or 14 weeks): Inhibited intrahepatic | frequency of intrahepatic anti-inflammatory macrophages ([1]; Male C57BL/6N mice fed CDAHFD, IP, 30 mg/kg/day for 14 weeks): weeks, and increased | fibrosis on histopathology ([1]; Male C57BL/6N mice fed CDAHFD, IP, only with 30 mg/kg/day for 14 weeks): Significantly improved

CCO[C@@H](Cc1ccc(OCCn2c(C)ccc2-c2ccc(SC)cc2)cc1)C(=O)O [Saroglitazar]
hepatic steatosis [1, 12]: induced reversal of | liver TNFα levels and hepatic fibrogenic and inflammatory gene expression [1, 12]: reduced liver TNFα | reduction of serum ALT [1, 12]: including ALT (60%), | reduction of serum AST [1, 12]: AST (43%), and MCP1 | reduction of serum MCP1 [1, 12]: (45%). Liver lipid (TG) | vacuolation and ballooning [1, 12]: reduced or no

CCCCCCCCCCCCCCCC(=O)N[C@@H](CCC(=O)NCCCC[C@H](NC(=O)[C@H](C)NC(=O)[C@H](C)NC(=O)[C@H](CCC(N)=O)NC(=O)CNC(=O)[C@H](CCC(=O)O)NC(=O)[C@H](CC(C)C)NC(=O)[C@H](Cc1ccc(O)cc1)NC(=O)[C@H](CO)NC(=O)[C@H](CO)NC(=O)[C@@H](NC(=O)[C@H](CC(=O)O)NC(=O)[C@H](CO)NC(=O)[C@@H](NC(=O)[C@H](Cc1ccccc1)NC(=O)[C@@H](NC(=O)CNC(=O)[C@H](CCC(=O)O)NC(=O)[C@H](C)NC(=O)[C@@H](N)Cc1cnc[nH]1)[C@@H](C)O)[C@@H](C)O)C(C)C)C(=O)N[C@@H](CCC(=O)O)C(=O)N[C@@H](Cc1ccccc1)C(=O)N[C@H](C(=O)N[C@@H](C)C(=O)N[C@@H](Cc1c[nH]c2ccccc12)C(=O)N[C@@H](CC(C)C)C(=O)N[C@H](C(=O)N[C@@H](CCCNC(=N)N)C(=O)NCC(=O)N[C@@H](CCCNC(=N)N)C(=O)NCC(=O)O)C(C)C)[C@@H](C)CC)C(=O)O [Liraglutide]
Incidence of Hypoglycemic Episodes for Combination with Metformin (vs. Placebo) ([2]; prescribing information): 3.6% | Incidence of Hypoglycemic Episodes for Combination with a Sulfonylurea (vs. Placebo) ([2]; prescribing information, lixisenatide: add-on to a sulfonylurea with or without metformin): 7.5%
